Like-named read-outs stand apart in the source and are kept apart here.
What was measured:
[1] = test system: collagen antibody-induced arthritis (CAIA)
[2] = Whole-body cortisol measurement using ELISA
Larval body length = assay type: in vivo, Zebrafish (Danio rerio); conditions: 5 dpf, treatment from 2 hpf
Description: When the regeneration of the tail fins after wounding or the larval body length was used as a readout, chemical treatments of the embryos were started at 2 hours post fertilization (hpf) and continued until 5 dpf. During this period, solutions were refreshed daily. At 5 dpf, larvae were imaged using a LeicaMZ16FA fluorescence stereomicroscope supported by LAS 3.7 software, and the length of the larvae was measured using ImageJ software (15 larvae per treatment group). For the regeneration experiments, tail fins were amputated at 2 dpf and larvae were imaged at 5 dpf (15 larvae per treatment group). The newly grown tissue can be distinguished from the old tissue, enabling precise measurement of the size of the newly grown tissue using ImageJ software.

[3] = test system: Gr target genes fkbp5, pck1 and nfkbiaa; assay: qPCR of Gr target genes fkbp5, pck1, nfkbiaa; assay type: in vivo, Zebrafish (Danio rerio)
Description: For experiments in zebrafish, gene expression was measured using 3 dpf embryos. Groups of 15 larvae were collected in TRIzol reagent (Invitrogen) and mRNA was isolated using the miRNeasy mini kit (Qiagen), according to the manufacturer's instructions. For experiments in HeLa cells, samples were collected from a single well from 6 well plates (80% confluent) in TRIzol reagent and mRNA was isolated using the RNeasy mini kit. Zebrafish and cells samples were treated with DNAse utilizing the DNA-Free™ kit (Ambion). The cDNA synthesis was performed using iScript cDNA synthesis kit (Bio-Rad) using 1 μg of RNA per sample. For qPCR, 10 μM of forward and 10 μM of reverse primer, 12.5 μL of iQ SYBR Green Supermix (Bio-Rad), and 2 μL of cDNA were added to the qPCR reaction mixture. […] The qPCR reactions were performed on a MyiQ-single-color real-time PCR detection system (Bio-Rad) with initial denaturation for 3 min at 95° C. and 40 cycles of 15 s at 95.5° C., 15 s at 60° C., and 30 s at 72° C. Cycle threshold values (Ct values, i.e. the cycle numbers at which a threshold value of the fluorescence intensity was reached) were determined for each sample. The gene expression level for each sample was normalized using the expression of ppial (peptidylprolyl isomerase Ab (cyclophilin A)) for zebrafish samples, and 18S rRNA for human cells. The fold change per sample (compared to the respective control group) was calculated using the ΔΔCt method.

[4] = test system: il1b, il6, mmp9, mmp13, il8 mRNA; assay: qPCR of pro-inflammatory genes after tail wounding; assay type: in vivo, Zebrafish (Danio rerio)
Summary of the method: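 3 dpf Tg(mpx:GFP/mpeg1:mCherry) zebrafish larvae were treated with compound or 0.1% DMSO from 2 h before partial tail amputation until 4 h after. mRNA from pools of 15 larvae went to SYBR Green qPCR, normalized to ppial, with fold change versus control by ΔΔCt.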

[5] = Whole-body glucose measurement in larvae
Gr = assay: Transactivation activity of Gr in Tg(9xGCRE-HSV.UI23:EGFP) reporter line; assay type: in vivo, Zebrafish (Danio rerio); conditions: 24 h treatment, 3 dpf larvae
Summary of the method: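 Zebrafish embryos carrying a nine-GRE promoter driving EGFP were treated with compounds at 2 dpf for 24 h, 15 embryos per group. Read-out was integrated EGFP intensity in larvae, measured by fluorescence stereomicroscopy.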

IL-6 = assay: CAIA model: serum IL-6 by ELISA; assay type: in vivo, mouse
Description: All mice received 1.5 mg of a CAIA-cocktail (Chondrex) intravenously on day 1, followed by intraperitoneal (i.p.) injection of 50 μg LPS (Chondrex) on day 4. Mice were randomly divided into six groups. […] Scores were assigned blinded. […] The blood collection on day 14 was performed after 6 h fasting. On day 15, mice were sacrificed using carbon dioxide, and tissue samples were collected that were immediately frozen in liquid nitrogen. Applied humane endpoints were a total body weight loss of >20% in comparison to the day of LPS treatment or reaching an arthritis score of 45.
IL-6 concentrations were determined by ELISA in the serum collected at days 10 and 15, using the IL-6 mouse ELISA kit (Invitrogen), following the manufacturer's protocol. The insulin concentration was determined in serum collected at day 14, using the Ultra-sensitive mouse insulin ELISA kit (Crystal Chem), following the manufacturer's protocol. Corticosterone concentrations were determined in serum collected at day 15, using the Corticosterone HS (high sensitivity) enzyme immunoassay kit (Immunodiagnostic Systems), following the manufacturer's protocol. Expression levels of various GR target genes were determined by qPCR in the tissue samples (homogenized in TRIzol Reagent (ThermoFisher)) collected at day 15.

[6] = 5 dpf larvae treated from 2 hpf, non-wounded

Compound: C[C@]12C=CC(=O)C=C1CC[C@@H]1[C@@H]2[C@@H](O)C[C@@]2(C)[C@H]1CC[C@]2(O)C(=O)CO[C@@H]1O[C@H](CO[C@@H]2O[C@H](CO)[C@@H](O)[C@H](O)[C@H]2O)[C@@H](O)[C@H](O)[C@H]1O [GbPdn, 21-O-Gentobiose-Prednisolone]
- day of maximal effect on arthritis score ([1]; 12.5 mg/kg i.p. daily from day 7): 15 days
- day of maximal effect on arthritis score ([1]; 25 mg/kg i.p. daily from day 7): 14 days
- day of maximal effect on arthritis score ([1]; 50 mg/kg i.p. daily from day 7): 13 days
- arthritis scores after treatment initiation ([1]; all dose groups, daily i.p. from day 7): decreased rapidly after treatment initiation
- whole body cortisol level [2, 6]: did not affect the glucose or cortisol concentration
- whole body cortisol level under wounding conditions ([2]; 5 dpf larvae, wounded at 2 dpf): decrease in cortisol concentration
- larval length (Larval body length): neither did it affect the length of the larvae
- expression of Gr target genes fkbp5, pck1 and nfkbiaa [3]: lack of effect
- expression of the pro-inflammatory genes il1b, il6 and il8 [4]: suppression of the expression
- whole body glucose level [5, 6]: did not affect the glucose or cortisol concentration
- whole body glucose level under wounding conditions ([5]; 5 dpf larvae, wounded at 2 dpf): increase in glucose levels
- transactivation activity of Gr (GFP signal in GRE:GFP reporter fish line) (Gr): neither GPdn nor GbPdn induced the transactivation activity of the Gr
- serum IL-6 level compared to other treated groups (IL-6; day 10, 12.5 mg/kg): slightly higher IL-6 concentration compared to the other groups
- serum IL-6 level compared to the vehicle group (IL-6; day 10, all treatment groups): significant reduction of the IL-6 level
- serum IL-6 level (IL-6; day 15, 12.5 mg/kg): a very low level was detected in two (out of four) mice
- serum IL-6 level (IL-6; day 15, all groups except 12.5 mg/kg GbPdn): undetectable
